Reference: patent publication US12447151B2, “Alkyne derivative, preparation method for same, and uses thereof” (ZHEJIANG HISUN PHARMACEUTICAL CO., LTD., priority 2019, dated 2025)

What was measured:
[1] = Metabolic stability in liver microsomes; type: in vitro ADME; settings: human liver microsomes 0.5 mg/mL, 1 μM compound, NADPH 1 mM; read-out: half-life period/(T1/2, min)
Experimental: The test compound was co-incubated with human liver microsomes, and coenzyme NADPH was added to initiate the reaction. At 0, 5, 15, 30 and 60 minutes, 20 μL of incubation solution was taken out and transferred to 200 μL of acetonitrile containing internal standard to stop the reaction. After protein precipitation, centrifugation was performed at 3,700 rpm for 10 minutes and the supernatant was taken. The supernatant was diluted 1:1 with water and analyzed by LC-MS/MS method. According to the elimination half-life of the test compound in the incubation system, the in vitro intrinsic clearance rate was calculated. Midazolam was used as the internal reference compound and incubated for two aliquots in parallel.
The ratio of peak area of the analyte/internal standard (Aanalyte/AIS) was obtained by the instrument. The remaining percentage (% Control) was calculated from the ratio of Aanalyte/AIS in the non-zero time point sample to the zero time point sample. Ln (% Control) versus incubation time was plotted and a linear fit was performed. The clearance constant (k, min^−1), the clearance half-life (T1/2, min) and the in vitro intrinsic clearance rate (CLint, mL·min^−1·mg^−1 proteins) of the test compound were calculated by the following equations.
Cprotein(mg·mL^−1) refers to the concentration of microsomal protein in the incubation system.

[2] = Oral pharmacokinetics in ICR mice; type: in vivo; settings: male, mouse, plasma, Oral (5 mg/kg)
Experimental: (§1) Using ICR mice as the test animals, the mice were intragastrically administrated with the compound of the present invention. LC/MS/MS method was used to determine the drug concentration in the plasma at different times to study the pharmacokinetic characteristics of the compound of the present invention in mice.
(§2) An appropriate amount of the compound to be tested was weighed, and 0.5% sodium carboxymethylcellulose (containing 0.05% Tween80) was added. The mixture was vortexed, and sonicated so that the solid was ultrasonically dispersed uniformly to obtain a suspension; 100 μL×2 of the preparation were aspirated, and placed in 1.5-mL EP tubes, stored at 2 to 8° C. The concentration of the preparation was 0.5 mg/mL.
Twenty-seven healthy adult ICR male mice were fasted overnight and then intragastrically administered (dosage of administration was 5 mg/kg), and fed 4 hours after administration.
At 0.083 hours, 0.25 hours, 0.5 hours, 1 hour, 2 hours, 4 hours, 8 hours, 12 hours, and 24 hours after administration, 80 μL of blood was collected from the orbital vein. About 0.08 mL of blood was collected, and placed in EDTA-K2 anticoagulation tube. […] The collected plasma was stored at −40 to −20° C. before analysis. The […] method was used to determine the content of the test compound in the plasma of ICR mice after intragastric administration of different compounds.

recombinant human PI3Kδ = recombinant human PI3Kδ (Homo sapiens (Human), UniProt O00329); test: Inhibitory activity on PI3K kinase (ADP-Glo Kinase Assay)
recombinant human PI3Kγ = recombinant human PI3Kγ (Homo sapiens (Human), UniProt P48736); test: as above; type: biochemical
From the text: The following method is used to determine the degree of inhibition of recombinant human PI3Kα, PI3Kβ, PI3Kγ and PI3Kδ kinase activity by the compounds of the present invention under in vitro conditions. Promega's ADP-Glo Kinase Assay Kit (Cat. No. V9102) was used in this method. The above kit was a luminescence kinase detection kit, which was used to detect the ADP content produced by the kinase reaction. The ADP content was positively correlated with the kinase activity. By measuring the ADP content, the inhibition of the compound on the activity of PI3Kα, PI3Kβ, PI3Kγ and PI3Kδ kinases was reflected. For detailed experimental operations, please refer to the kit instructions. Recombinant human PI3Kα, PI3Kγ, and PI3Kδ were purchased from Invitrogen, and PI3Kβ was purchased from Promega (category numbers were PI3Kα: PV4788; PI3Kβ: V1751; PI3Kγ: PV4786 and PI3Kδ: PV6451 separately).

recombinant human PI3Kα = recombinant human PI3Kα (Homo sapiens (Human), UniProt P42336); test: as above
From the text: The following method is used to determine the degree of inhibition of recombinant human PI3Kα, PI3Kβ, PI3Kγ and PI3Kδ kinase activity by the compounds of the present invention under in vitro conditions. Promega's ADP-Glo Kinase Assay Kit (Cat. No. V9102) was used in this method. The above kit was a luminescence kinase detection kit, which was used to detect the ADP content produced by the kinase reaction. The ADP content was positively correlated with the kinase activity. By measuring the ADP content, the inhibition of the compound on the activity of PI3Kα, PI3Kβ, PI3Kγ and PI3Kδ kinases was reflected. […] Recombinant human PI3Kα, PI3Kγ, and PI3Kδ were purchased from Invitrogen, and PI3Kβ was purchased from Promega (category numbers were PI3Kα: PV4788; PI3Kβ: V1751; PI3Kγ: PV4786 and PI3Kδ: PV6451 separately).

[3] = Oral pharmacokinetics in SD rats; type: in vivo; settings: male, rat, plasma, Oral (5 mg/kg)
Experimental: as §1, with “SD rats” for “ICR mice”, “as” for “as the”, “rats” for “mice”, “rats.” for “mice.”
as §2, with “obtain a suspension. 100 μL×2” for “obtain a suspension; 100 μL×2”, “of the filtered preparation were” for “of the preparation were”, “at […].” for “at 2 to 8° C.”
Nine healthy adult male SD rats were fasted overnight and then intragastrically administered (dosage of administration was 5 mg/kg), and fed 4 hours after administration.
About 0.2 mL of blood was collected from the jugular vein at 0.083 hours, 0.25 hours, 0.5 hours, 1 hour, 2 hours, 4 hours, 8 hours, 12 hours, and 24 hours after administration, and heparin sodium was used for anticoagulation. The collected blood samples were placed on ice and centrifuged to separate the plasma (centrifugation conditions: 1500 g, 10 minutes). The collected plasma was stored at −40 to −20° C. before analysis. The LC-MS/MS method was used to determine the content of the test compound in the plasma of SD rats after intragastric administration of different compounds.

[4] = read-out: Area under the curve AUC0-∞
[5] = read-out: Plasma concentration Cmax

recombinant human PI3Kγ, sequence (P48736 whole entry): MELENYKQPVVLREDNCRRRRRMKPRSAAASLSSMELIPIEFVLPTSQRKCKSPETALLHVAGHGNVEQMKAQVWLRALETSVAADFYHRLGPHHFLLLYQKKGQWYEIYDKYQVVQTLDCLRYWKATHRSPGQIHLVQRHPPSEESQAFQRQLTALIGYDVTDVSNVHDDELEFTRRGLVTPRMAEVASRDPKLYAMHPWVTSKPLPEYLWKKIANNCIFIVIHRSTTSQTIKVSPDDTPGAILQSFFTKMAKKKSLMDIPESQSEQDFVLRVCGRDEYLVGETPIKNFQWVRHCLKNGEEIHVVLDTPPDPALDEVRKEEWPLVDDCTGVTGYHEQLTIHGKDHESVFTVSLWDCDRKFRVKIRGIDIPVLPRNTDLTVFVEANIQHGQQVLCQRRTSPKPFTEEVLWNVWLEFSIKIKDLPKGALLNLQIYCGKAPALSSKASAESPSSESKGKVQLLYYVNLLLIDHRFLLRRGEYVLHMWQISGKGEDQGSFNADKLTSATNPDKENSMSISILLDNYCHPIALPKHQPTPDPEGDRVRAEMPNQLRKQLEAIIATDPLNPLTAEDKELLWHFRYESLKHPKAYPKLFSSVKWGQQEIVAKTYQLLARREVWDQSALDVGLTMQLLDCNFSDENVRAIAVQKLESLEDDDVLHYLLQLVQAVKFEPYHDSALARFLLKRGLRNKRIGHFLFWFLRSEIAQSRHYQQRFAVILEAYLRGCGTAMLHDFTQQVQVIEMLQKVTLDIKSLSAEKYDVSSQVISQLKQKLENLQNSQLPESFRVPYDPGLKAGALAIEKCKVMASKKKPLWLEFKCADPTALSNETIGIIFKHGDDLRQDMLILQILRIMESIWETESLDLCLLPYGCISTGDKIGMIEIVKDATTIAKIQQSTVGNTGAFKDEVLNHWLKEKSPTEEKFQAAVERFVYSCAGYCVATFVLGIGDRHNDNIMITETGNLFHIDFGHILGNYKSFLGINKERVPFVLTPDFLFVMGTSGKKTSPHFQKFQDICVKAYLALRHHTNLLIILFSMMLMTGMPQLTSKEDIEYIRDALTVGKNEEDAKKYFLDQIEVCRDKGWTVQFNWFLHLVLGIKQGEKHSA
recombinant human PI3Kδ, sequence (O00329 whole entry): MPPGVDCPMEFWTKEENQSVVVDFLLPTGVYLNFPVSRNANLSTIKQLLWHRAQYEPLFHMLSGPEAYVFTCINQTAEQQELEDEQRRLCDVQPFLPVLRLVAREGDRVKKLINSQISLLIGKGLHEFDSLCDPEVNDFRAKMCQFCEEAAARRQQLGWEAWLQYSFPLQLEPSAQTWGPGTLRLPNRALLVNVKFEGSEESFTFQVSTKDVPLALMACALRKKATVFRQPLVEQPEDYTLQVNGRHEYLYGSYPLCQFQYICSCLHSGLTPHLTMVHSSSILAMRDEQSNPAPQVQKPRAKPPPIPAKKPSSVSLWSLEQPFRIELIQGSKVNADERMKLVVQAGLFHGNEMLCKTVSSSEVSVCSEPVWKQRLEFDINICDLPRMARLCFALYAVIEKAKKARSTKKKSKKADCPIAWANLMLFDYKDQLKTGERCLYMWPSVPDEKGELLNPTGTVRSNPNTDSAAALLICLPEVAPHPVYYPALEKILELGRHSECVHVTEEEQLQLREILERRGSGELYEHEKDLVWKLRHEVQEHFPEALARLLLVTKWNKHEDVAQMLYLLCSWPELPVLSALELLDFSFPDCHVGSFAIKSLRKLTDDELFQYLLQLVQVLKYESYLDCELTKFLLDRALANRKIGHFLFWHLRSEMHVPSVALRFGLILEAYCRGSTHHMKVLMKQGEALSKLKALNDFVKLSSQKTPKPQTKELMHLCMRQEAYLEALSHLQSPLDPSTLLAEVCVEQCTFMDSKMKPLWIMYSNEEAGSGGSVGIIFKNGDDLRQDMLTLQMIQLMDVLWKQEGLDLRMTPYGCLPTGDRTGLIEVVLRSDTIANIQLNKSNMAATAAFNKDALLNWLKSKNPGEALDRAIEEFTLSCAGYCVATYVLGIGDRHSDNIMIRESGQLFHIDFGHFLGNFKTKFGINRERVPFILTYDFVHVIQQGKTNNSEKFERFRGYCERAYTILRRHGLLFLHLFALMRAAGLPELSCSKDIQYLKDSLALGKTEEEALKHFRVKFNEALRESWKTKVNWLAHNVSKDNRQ
recombinant human PI3Kδ, sequence (P27986 whole entry partner): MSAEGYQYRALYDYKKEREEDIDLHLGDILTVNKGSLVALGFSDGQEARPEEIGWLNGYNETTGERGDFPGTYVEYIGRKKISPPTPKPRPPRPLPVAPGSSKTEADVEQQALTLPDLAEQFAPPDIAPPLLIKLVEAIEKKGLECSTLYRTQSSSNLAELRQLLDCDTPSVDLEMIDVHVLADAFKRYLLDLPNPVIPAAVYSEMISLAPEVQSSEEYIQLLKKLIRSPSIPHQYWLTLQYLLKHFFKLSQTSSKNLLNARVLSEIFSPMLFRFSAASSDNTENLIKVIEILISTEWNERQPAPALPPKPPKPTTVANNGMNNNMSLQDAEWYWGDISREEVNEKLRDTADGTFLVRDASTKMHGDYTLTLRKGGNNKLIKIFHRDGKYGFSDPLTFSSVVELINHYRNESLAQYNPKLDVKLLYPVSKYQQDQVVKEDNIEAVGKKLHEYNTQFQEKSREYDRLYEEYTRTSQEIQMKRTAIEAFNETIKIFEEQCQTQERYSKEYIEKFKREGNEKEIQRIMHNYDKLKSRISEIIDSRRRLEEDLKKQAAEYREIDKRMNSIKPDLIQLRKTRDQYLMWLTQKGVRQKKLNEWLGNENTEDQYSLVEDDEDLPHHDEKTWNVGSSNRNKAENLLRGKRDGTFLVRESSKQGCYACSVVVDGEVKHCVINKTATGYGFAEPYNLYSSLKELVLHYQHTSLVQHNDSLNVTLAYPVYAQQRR
recombinant human PI3Kα, sequence (P42336 whole entry): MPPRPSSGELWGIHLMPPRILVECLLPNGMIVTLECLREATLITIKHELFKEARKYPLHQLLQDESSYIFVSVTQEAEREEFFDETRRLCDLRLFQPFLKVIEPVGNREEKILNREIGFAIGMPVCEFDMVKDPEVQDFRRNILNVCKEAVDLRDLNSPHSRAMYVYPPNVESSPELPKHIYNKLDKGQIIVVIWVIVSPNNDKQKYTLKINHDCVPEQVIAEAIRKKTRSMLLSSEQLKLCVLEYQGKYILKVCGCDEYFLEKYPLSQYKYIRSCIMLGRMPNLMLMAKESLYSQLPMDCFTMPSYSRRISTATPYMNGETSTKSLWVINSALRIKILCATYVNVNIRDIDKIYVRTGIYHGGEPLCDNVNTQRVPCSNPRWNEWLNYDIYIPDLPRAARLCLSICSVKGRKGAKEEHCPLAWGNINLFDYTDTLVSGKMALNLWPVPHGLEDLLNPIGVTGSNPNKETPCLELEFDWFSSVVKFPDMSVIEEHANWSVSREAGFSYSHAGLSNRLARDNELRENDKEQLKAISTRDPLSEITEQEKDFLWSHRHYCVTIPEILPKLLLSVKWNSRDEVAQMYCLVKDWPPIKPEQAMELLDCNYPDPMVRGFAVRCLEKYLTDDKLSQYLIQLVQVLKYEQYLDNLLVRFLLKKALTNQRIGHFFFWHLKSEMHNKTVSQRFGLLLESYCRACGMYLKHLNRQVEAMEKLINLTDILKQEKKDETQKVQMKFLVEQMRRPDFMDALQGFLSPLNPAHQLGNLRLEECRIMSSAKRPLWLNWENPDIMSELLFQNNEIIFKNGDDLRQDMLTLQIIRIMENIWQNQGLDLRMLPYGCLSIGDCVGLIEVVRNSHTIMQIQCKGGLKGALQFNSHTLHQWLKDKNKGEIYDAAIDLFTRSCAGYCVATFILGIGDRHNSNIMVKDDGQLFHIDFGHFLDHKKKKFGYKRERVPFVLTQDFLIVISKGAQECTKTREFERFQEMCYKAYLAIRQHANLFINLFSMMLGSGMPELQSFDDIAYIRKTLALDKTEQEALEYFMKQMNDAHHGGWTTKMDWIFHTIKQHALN
recombinant human PI3Kα, sequence (P27986 whole entry partner): as the sequence (P27986 whole entry partner) above

half-life at 1 μM [1]: 233 min
AUC(0-inf) [2, 4]: 15100 ng·h/mL
bioavailability ([2]; read-out: Bioavailability F): 60%
half-life ([2]; read-out: Half-life period T½ (converted)): 204 min
Cmax [2, 5]: 1730 ng/mL
IC50 (recombinant human PI3Kδ): 191 nM
IC50 (recombinant human PI3Kγ; ADP-Glo, ATP 10 μM): 0.58 nM
IC50 (PI3Kα)/IC50(PI3Kγ) (recombinant human PI3Kγ; kinase selectivity for PI3Kγ over PI3Kα): 370
IC50 (PI3Kβ)/IC50(PI3Kγ) (recombinant human PI3Kγ; kinase selectivity for PI3Kγ over PI3Kβ): 804
IC50 (PI3Kδ)/IC50(PI3Kγ) (recombinant human PI3Kγ; kinase selectivity for PI3Kγ over PI3Kδ): 330
IC50 (recombinant human PI3Kα): 215 nM
AUC(0-inf) [3, 4]: 11000 ng·h/mL
bioavailability ([3]; read-out: Bioavailability F): 66%
half-life ([3]; read-out: Half-life period T1/2 (converted)): 246 min
Cmax [3, 5]: 1160 ng/mL
SMILES: C[C@H](NC(=O)c1c(N)nn2cccnc12)c1nc2cccc(C#Cc3cnn(C4CC4)c3)c2c(=O)n1-c1ccccc1 [Example 2, (S)-2-amino-N-(1-(5-((1-cyclopropyl-1H-pyrazol-4-yl)ethynyl)-4-oxo-3-phenyl-3,4-dihydroquinazolin-2-yl)ethyl)pyrazolo[1,5-a]pyrimidine-3-carboxamide]
